Laboratory results reported in paper doi:10.1101/2025.10.09.681351v1 (biorxiv, 2025).

Legend:
[1] = target: EPAS1 (mouse recombinant EPAS1; HIF-2α) (Mus musculus, UniProt P97481); test: isothermal titration calorimetry; assay type: binding
recombinant human EPAS1 = recombinant human EPAS1 (Homo sapiens, UniProt Q99814); test: isothermal titration calorimetry; assay type: binding
Chain of recombinant human EPAS1 (Q99814 whole entry): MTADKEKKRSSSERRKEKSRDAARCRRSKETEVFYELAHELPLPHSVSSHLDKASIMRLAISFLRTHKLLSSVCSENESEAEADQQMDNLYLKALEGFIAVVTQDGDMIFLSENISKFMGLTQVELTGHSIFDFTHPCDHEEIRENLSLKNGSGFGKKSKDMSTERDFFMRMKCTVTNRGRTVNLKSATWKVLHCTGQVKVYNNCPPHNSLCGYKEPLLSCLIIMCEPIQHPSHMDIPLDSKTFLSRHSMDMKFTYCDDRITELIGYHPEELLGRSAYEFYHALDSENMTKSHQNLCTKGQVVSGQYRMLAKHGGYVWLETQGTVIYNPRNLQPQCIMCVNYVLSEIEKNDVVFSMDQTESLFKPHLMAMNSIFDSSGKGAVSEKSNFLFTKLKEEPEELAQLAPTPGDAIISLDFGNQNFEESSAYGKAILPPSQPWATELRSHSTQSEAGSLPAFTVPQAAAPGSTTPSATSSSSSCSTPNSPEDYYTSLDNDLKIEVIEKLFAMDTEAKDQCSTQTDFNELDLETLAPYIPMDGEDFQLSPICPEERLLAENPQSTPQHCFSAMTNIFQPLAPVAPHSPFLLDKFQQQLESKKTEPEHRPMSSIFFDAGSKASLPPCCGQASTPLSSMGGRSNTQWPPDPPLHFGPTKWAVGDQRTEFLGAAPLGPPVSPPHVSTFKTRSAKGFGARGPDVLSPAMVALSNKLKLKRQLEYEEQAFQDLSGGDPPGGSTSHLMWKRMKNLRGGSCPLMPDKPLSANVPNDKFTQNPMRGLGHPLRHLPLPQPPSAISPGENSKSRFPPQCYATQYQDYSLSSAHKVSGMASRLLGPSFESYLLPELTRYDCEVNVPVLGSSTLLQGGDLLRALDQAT

Chain of EPAS1 (mouse recombinant EPAS1; HIF-2α) (P97481 whole entry): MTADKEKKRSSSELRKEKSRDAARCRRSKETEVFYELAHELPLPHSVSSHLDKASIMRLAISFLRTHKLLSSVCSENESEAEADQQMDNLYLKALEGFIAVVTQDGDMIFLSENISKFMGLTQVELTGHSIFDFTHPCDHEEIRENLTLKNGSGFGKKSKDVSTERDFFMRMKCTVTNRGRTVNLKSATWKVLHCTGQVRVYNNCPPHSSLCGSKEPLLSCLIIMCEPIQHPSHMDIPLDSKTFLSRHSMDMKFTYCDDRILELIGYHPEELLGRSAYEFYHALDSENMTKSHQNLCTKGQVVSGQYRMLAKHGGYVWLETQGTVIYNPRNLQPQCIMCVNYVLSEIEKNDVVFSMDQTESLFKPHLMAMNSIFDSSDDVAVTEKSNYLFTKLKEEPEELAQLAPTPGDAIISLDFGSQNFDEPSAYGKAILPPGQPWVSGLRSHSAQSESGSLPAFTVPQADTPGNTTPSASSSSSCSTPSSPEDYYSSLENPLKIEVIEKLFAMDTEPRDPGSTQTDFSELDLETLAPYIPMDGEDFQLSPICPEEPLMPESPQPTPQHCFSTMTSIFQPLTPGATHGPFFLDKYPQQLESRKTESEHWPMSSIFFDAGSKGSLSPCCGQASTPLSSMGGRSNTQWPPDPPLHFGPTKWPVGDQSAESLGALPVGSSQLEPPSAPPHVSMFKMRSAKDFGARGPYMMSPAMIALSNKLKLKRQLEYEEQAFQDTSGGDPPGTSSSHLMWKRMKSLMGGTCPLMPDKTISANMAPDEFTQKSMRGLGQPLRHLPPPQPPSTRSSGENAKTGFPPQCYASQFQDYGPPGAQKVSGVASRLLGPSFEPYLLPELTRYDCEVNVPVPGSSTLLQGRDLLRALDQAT

CCCCCCCCC/C=C\C(=O)O [BDSF]
Kd [1]: 4.3 µM | Kd (recombinant human EPAS1): 5.3 µM
